Measurements taken from patent US20180154142A1, “METHODS AND DEVICES FOR TREATMENT OF TUMORS WITH NANO-PULSE STIMULATION” (Old Dominion University Research Foundation, priority 2016, published 2018).

Experiments:
4T1 cells [1] = experiment: extracellular ATP release from treated 4T1 cells, luciferase/luciferin-based ATP determination kit; format: cell-based, mouse; conditions: mitoxantrone 1 μM positive control; change from 4 hours to 24 hours following treatment; FIG. 18B
Experimental: (§1) Cells then were placed in a 6 well plate for 1 hour or 20 hours. Cells with media but no NPS treatment served as negative control and a known ICD inducer, mitoxantrone (1 μM) was added to cells as a positive control. Cell surface-exposed CRT was measured by flow cytometry (FACSAria). Extracellular ATP concentrations were quantified by the luciferase/luciferin-based ATP determination Kit (A22066, Thermo-Fisher). The amount of HMGB1 in the supernatant was determined by HMGB1 ELISA Kit (MBS722248, MyBioSource).

4T1 cells [2] = experiment: cell surface calreticulin (CRT) on treated 4T1 cells, flow cytometry; format: cell-based, mouse; conditions: mitoxantrone 1 μM positive control; change from 4 hours to 24 hours following treatment; FIG. 18A
Experimental: as §1

O=C1c2c(O)ccc(O)c2C(=O)c2c(NCCNCCO)ccc(NCCNCCO)c21 [MXT, mitoxantrone]
levels of ATP release in the supernatants (4T1 cells [1]): increases
levels of calreticulin, mean fluorescence intensity (MFI) (4T1 cells [2]): largest increase
